Measurements from patent publication US9840520B2, “Heterocyclic hydroxamic acids as protein deacetylase inhibitors and dual protein deacetylase-protein kinase inhibitors and methods of use thereof” (The Regents of the University of Colorado, A Body Corporate, priority 2014, dated 2017).

Legend:
Type in all cases: cell-based
HOP-62 = test: NCI60 tumour cell line screen, HOP-62; conditions: Homo sapiens; HOP-62, Non-Small Cell Lung Cancer
SNB-19 = test: NCI60 tumour cell line screen, SNB-19; conditions: Homo sapiens; SNB-19, CNS Cancer
TK-10 = test: NCI60 tumour cell line screen, TK-10; conditions: Homo sapiens; TK-10, Renal Cancer
OVCAR-4 = test: NCI60 tumour cell line screen, OVCAR-4; conditions: Homo sapiens; OVCAR-4, Ovarian Cancer
DU-145 = test: NCI60 tumour cell line screen, DU-145; conditions: Homo sapiens; DU-145, Prostate Cancer
MDA-MB-468 = test: NCI60 tumour cell line screen, MDA-MB-468; conditions: Homo sapiens; MDA-MB-468, Breast Cancer
A498 = test: NCI60 tumour cell line screen, A498; conditions: Homo sapiens; A498, Renal Cancer
SK-MEL-2 = test: NCI60 tumour cell line screen, SK-MEL-2; conditions: Homo sapiens; SK-MEL-2, Melanoma
ACHN = test: NCI60 tumour cell line screen, ACHN; conditions: Homo sapiens, Renal Cancer
SK-MEL-5 = test: NCI60 tumour cell line screen, SK-MEL-5; conditions: Homo sapiens; SK-MEL-5, Melanoma
CAKI-1 = test: NCI60 tumour cell line screen, CAKI-1; conditions: Homo sapiens; CAKI-1, Renal Cancer
UO-31 = test: NCI60 tumour cell line screen, UO-31; conditions: Homo sapiens; UO-31, Renal Cancer
MALME-3M = test: NCI60 tumour cell line screen, MALME-3M; conditions: Homo sapiens, Melanoma
HL-60(TB) = test: NCI60 tumour cell line screen, HL-60(TB); conditions: Homo sapiens, Leukemia
BT-549 = test: NCI60 tumour cell line screen, BT-549; conditions: Homo sapiens; BT-549, Breast Cancer
SF-268 = test: NCI60 tumour cell line screen, SF-268; conditions: Homo sapiens; SF-268, CNS Cancer
NCI-H23 = test: NCI60 tumour cell line screen, NCI-H23; conditions: Homo sapiens; NCI-H23, Non-Small Cell Lung Cancer
MDA-MB-231/ATCC = test: NCI60 tumour cell line screen, MDA-MB-231/ATCC; conditions: Homo sapiens, Breast Cancer
NCI-H460 = test: NCI60 tumour cell line screen, NCI-H460; conditions: Homo sapiens; NCI-H460, Non-Small Cell Lung Cancer
A549/ATCC = test: NCI60 tumour cell line screen, A549/ATCC; conditions: Homo sapiens, Non-Small Cell Lung Cancer
OVCAR-3 = test: NCI60 tumour cell line screen, OVCAR-3; conditions: Homo sapiens; OVCAR-3, Ovarian Cancer
T-47D = test: NCI60 tumour cell line screen, T-47D; conditions: Homo sapiens, T47D, Breast Cancer
SF-539 = test: NCI60 tumour cell line screen, SF-539; conditions: Homo sapiens; SF-539, CNS Cancer
M14 = test: NCI60 tumour cell line screen, M14; conditions: Homo sapiens; M14, Melanoma
NCI-H522 = test: NCI60 tumour cell line screen, NCI-H522; conditions: Homo sapiens; NCI-H522, Non-Small Cell Lung Cancer
MDA-MB-435 = test: NCI60 tumour cell line screen, MDA-MB-435; conditions: Homo sapiens; MDA-MB-435, Melanoma
SF-295 = test: NCI60 tumour cell line screen, SF-295; conditions: Homo sapiens; SF-295, CNS Cancer
MOLT-4 = test: NCI60 tumour cell line screen, MOLT-4; conditions: Homo sapiens; MOLT-4, Leukemia
PC-3 = test: NCI60 tumour cell line screen, PC-3; conditions: Homo sapiens; PC-3, Prostate Cancer
RXF393 = test: NCI60 tumour cell line screen, RXF393; conditions: Homo sapiens, RXF 393; RXF393, Renal Cancer
HCC-2998 = test: NCI60 tumour cell line screen, HCC-2998; conditions: Homo sapiens; HCC-2998, Colon Cancer
HCT-116 = test: NCI60 tumour cell line screen, HCT-116; conditions: Homo sapiens; HCT-116, Colon Cancer
IGROV1 = test: NCI60 tumour cell line screen, IGROV1; conditions: Homo sapiens, IGROV-1; IGROV1, Ovarian Cancer
SNB-75 = test: NCI60 tumour cell line screen, SNB-75; conditions: Homo sapiens; SNB-75, CNS Cancer
MCF7 = test: NCI60 tumour cell line screen, MCF7; conditions: Homo sapiens; MCF7, Breast Cancer
SN12C = test: NCI60 tumour cell line screen, SN12C; conditions: Homo sapiens, Renal Cancer
OVCAR-5 = test: NCI60 tumour cell line screen, OVCAR-5; conditions: Homo sapiens; OVCAR-5, Ovarian Cancer
OVCAR-8 = test: NCI60 tumour cell line screen, OVCAR-8; conditions: Homo sapiens; OVCAR-8, Ovarian Cancer
U251 = test: NCI60 tumour cell line screen, U251; conditions: Homo sapiens, U-251; U251, CNS Cancer
SK-MEL-28 = test: NCI60 tumour cell line screen, SK-MEL-28; conditions: Homo sapiens; SK-MEL-28, Melanoma
COLO205 = test: NCI60 tumour cell line screen, COLO205; conditions: Homo sapiens, COLO 205; COLO205, Colon Cancer
LOXIMVI = test: NCI60 tumour cell line screen, LOXIMVI; conditions: Homo sapiens, LOX IMVI, Melanoma
UACC-62 = test: NCI60 tumour cell line screen, UACC-62; conditions: Homo sapiens; UACC-62, Melanoma

O=C(CCCCCOc1ccc(Nc2nc(NC3CCCCC3)c3nc[nH]c3n2)cc1)NO [Example 3, 6-(4-(6-(cyclohexylamino)-9H-purin-2-ylamino)phenoxy)-N-hydroxyhexanamide]
GI50 (HOP-62): 2960 nM | GI50 (SNB-19): 5960 nM | GI50 (TK-10): 2680 nM | GI50 (OVCAR-4): 3820 nM | GI50 (DU-145): 2510 nM | GI50 (MDA-MB-468): 2400 nM | GI50 (A498): 195 nM | GI50 (SK-MEL-2): 2930 nM | GI50 (ACHN): 3570 nM | GI50 (SK-MEL-5): 2820 nM | GI50 (CAKI-1): 4680 nM | GI50 (UO-31): 3520 nM | GI50 (MALME-3M): 2490 nM | GI50 (HL-60(TB)): 2950 nM | GI50 (BT-549): 5510 nM | GI50 (SF-268): 3830 nM | GI50 (NCI-H23): 4730 nM | GI50 (MDA-MB-231/ATCC): 1930 nM | GI50 (NCI-H460): 2040 nM | GI50 (A549/ATCC): 2300 nM | GI50 (OVCAR-3): 2170 nM | GI50 (T-47D): 2330 nM | GI50 (SF-539): 1570 nM | GI50 (M14): 1960 nM | GI50 (NCI-H522): 2720 nM | GI50 (MDA-MB-435): 2460 nM | GI50 (SF-295): 2350 nM | GI50 (MOLT-4): 1780 nM | GI50 (PC-3): 2980 nM | GI50 (RXF393): 1900 nM | GI50 (HCC-2998): 3580 nM | GI50 (HCT-116): 1450 nM | GI50 (IGROV1): 2240 nM | GI50 (SNB-75): 1690 nM | GI50 (MCF7): 1460 nM | GI50 (SN12C): 3230 nM | GI50 (OVCAR-5): 2260 nM | GI50 (OVCAR-8): 2800 nM | GI50 (U251): 1960 nM | GI50 (SK-MEL-28): 3640 nM | GI50 (COLO205): 1260 nM | GI50 (LOXIMVI): 1180 nM | GI50 (UACC-62): 2220 nM
